This passage reports IC50 and EC50 results from PMC8268581, “Identification of 3,4-Dihydro-2H,6H-pyrimido[1,2-c][1,3]benzothiazin-6-imine Derivatives as Novel Selective Inhibitors of Plasmodium falciparum Dihydroorotate Dehydrogenase” (International Journal of Molecular Sciences, 2021).

Data set [1] deals with T1, PfDHODH (Plasmodium falciparum, UniProt Q08210).
T1 construct: encoding amino acid residues 158 to 569 fused to a His6-SUMO tag in its N-terminus; His6-SUMO (N, cleaved yes); made in house; host or cells: E. coli BL21 Star (DE3), pETSUMO/PfDHODH
Kind of data set: PfDHODH inhibition assay (DCIP end-point, 384-well). Type of data set: biochemical. As to conditions: recombinant tag-free PfDHODH, 20 min, serial dilutions 0.0007-22.7 µM; read-out: IC50 DHODH Pf. On the procedure:
The screening of 40,400 compounds was conducted in 384-well plates by adapting the end-point assay reported before. First, 1 µL of 200 µM compound was transferred into 384-well plates using a Benchtop Multi-Pipetter EDR-384SR (Biotech Co., Ltd., Tokyo, Japan). […] Next, 38 µL of assay mix (100 mM HEPES-NaOH pH 7.5, 5% (v/v) glycerol, 150 mM NaCl, 0.05% (v/v) Triton X-100, 15 µM decylubiquinone (dUQ, Sigma), 120 µM 2,6-dichlorophenolindophenol (DCIP, Sigma), and 20 nM PfDHODH) were dispensed into all wells and mixed at 600 rpm for 1 min by a MixMate®® (Eppendorf). The reaction was started by the addition of 5 µL of 1.8 mM L-DHO (Sigma) as the substrate and mixed as described above for 20 s. The absorbance at 600 nm was recorded using a SpectraMax®® Paradigm®® Multi-Mode Microplate Reader (Molecular Devices) before (t0) and after 20 min (t20) incubation at room temperature. The readings at t0 were subtracted from t20, and PfDHODH inhibition was calculated as the inhibition relative to the negative and positive controls in a single-point assay. Hits were defined as compounds inhibiting more than 50% of PfDHODH activity at 4.5 µM. The quality of the screening system was evaluated by calculating statistical parameters: Z′-factor, S/N, S/B, SW, and CV, as previously reported. The IC50 values of the hit compounds were determined using the same assay system containing serial dilutions of each compound in triplicates (22.7, 6.8, 2.27, 0.68, 0.227, 0.068, 0.023, 0.007, 0.002, 0.0007 µM) using GraphPad Prism 8.0 software (GraphPad Software Inc., San Diego, CA, USA).

The target of data set [2] is mammalian mitochondrial complexes I–III (Bos taurus, UniProt P00157+P03887+P17694+P42026). The data set is described as follows: NADH-cytochrome c reductase (complexes I–III) activity assay. Type of data set: biochemical. The settings on record: bovine heart mitochondria, range tested 0.0007 to 22.7 µM; read-out: IC50 Mammalian Mitochondrial CI–III. On the procedure: (§1) Bovine heart mitochondria were prepared as previously described. The NADH-cytochrome c reductase (complexes I–III) and succinate-cytochrome c reductase (complexes II–III) activities were assayed in 384-well plates following an established protocol with small modifications. Complex I–III activity was assayed in a reaction mix containing 50 mM phosphate buffer pH 7.4, 2 mM KCN, 200 µM cytochrome c (cytochrome c from horse heart, Nacalai tesque), and 15 µg/mL mitochondria. Plates containing 1 µL serial dilutions of PfDHODH inhibitors were prepared and mixed with 38 µL of the reaction mix, as described above. The reaction was started by the addition of 5 µL of 2.6 mM NADH, and the assay was performed as described for PfDHODH, but at 550 nm and with 15 min of incubation. Complex II–III activity was assayed similarly to complex I–III activity but with 100 µM cytochrome c and 25 µg/mL mitochondria, and the reaction was started by 10 mM succinate. For both assays, DMSO and 5 µM ascochlorin were used as negative and positive controls, respectively. Assays were performed in triplicate.

In data set [3] the target is T2, HsDHODH (Homo sapiens, UniProt Q02127).
T2 construct: made in house
Kind of data set: HsDHODH counter-assay. Format: biochemical. The settings on record: purified recombinant HsDHODH, tested at 4.5 µM; read-out: IC50 DHODH Hs. On the procedure:
Selected hit compounds from PfDHODH screening were tested for potential inhibition against HsDHODH at 4.5 µM. The HsDHODH used in this study was purified as previously reported. The HsDHODH assay was performed similarly to that for PfDHODH, but in an assay mix consisting of 50 mM Tris-HCl pH 8.0, 0.1% (v/v) Triton X-100, 2 mM potassium cyanide (KCN, Wako), 60 µM dUQ, and 120 µM DCIP, with the reaction started by the addition of 200 µM L-DHO (final concentration) in triplicate. For this assay, DMSO was used as a negative control and 10 µM of lapachol was used as a positive control (100% inhibition). The relative inhibition was calculated as described above.

Data set [4] is described as follows: Cytotoxicity assay, PANC-1 (Cell Counting Kit-8). Type of data set: cell-based. As to conditions: PANC-1 human pancreatic carcinoma cells. Here is the method: (§2) Human dermal fibroblast cells (HDF, Zenbio, Inc., Durham, NC, USA) were cultured in Dulbecco’s Modified Eagle Medium/Nutrient Mixture F-12 medium (DMEM/F12, Gibco), human pancreatic carcinoma cells (PANC-1, DS Pharma Biomedical, Co., Ltd.) were cultured in DMEM (Gibco), and human colorectal adenocarcinoma cells (DLD-1, Taiho Pharmaceutical Company) were cultured in RPMI-1640 medium (FUJIFILM Wako Pure Chemicals). The culture mediums were supplemented with 10% (v/v) heat-inactivated fetal bovine serum (Gibco) and the cells were maintained at 37 °C under 5% CO2.
(§3) HDF, PANC-1, and DLD-1 were seeded at 2.5 × 10^4 cells/well on a 96-well plate and incubated at 37 °C under 5% CO2 overnight. The cells were then washed with PBS and the medium was replaced with 99 µL of fresh media. Then, 1 µL of the compounds or DMSO was added to the respective wells. As controls, wells containing 1% (v/v) DMSO in column 1 and wells containing only the culture medium in column 12 were used as the negative and positive controls, respectively. After 48 h of incubation, the cells were washed with PBS, and 99 µL of fresh media was replaced, followed by the addition of 10 µL of Cell Counting Kit-8 (Dojindo) to each well. After 3 h of incubation, the absorbance was measured at 450 nm using a SpectraMax®® Paradigm®® Multi-Mode microplate Reader. The calculation of cell viability in the test well was based on the absorbance of control wells according to the manufacturer’s protocol. The mean of quadruplet values was used to calculate the CC50 using GraphPad Prism 8.0 software.
On the technique in general: Formazan colour is commonly taken as a measure of viable cells.

Data set [5] has as its target mammalian mitochondrial complexes II–III (Bos taurus, UniProt P00157+P35720+Q3T189+Q95123). Kind of data set: succinate-cytochrome c reductase (complexes II–III) activity assay. Type of data set: biochemical. As to conditions: bovine heart mitochondria, range tested 0.0007 to 22.7 µM; read-out: IC50 Mammalian Mitochondrial CII–III. On the procedure: as §1
A short description of data set [6]: Cytotoxicity assay, DLD-1 (Cell Counting Kit-8). Format: cell-based. As to conditions: DLD-1 human colorectal adenocarcinoma cells. Here is the method: as §2, §3
Data set [7] is described as follows: Cytotoxicity assay, HDF (Cell Counting Kit-8). Type of data set: cell-based. As to conditions: human dermal fibroblast (HDF) cells, normal human dermal fibroblasts. On the procedure: as §2, §3
In data set [8] the test system is P. falciparum 3D7. The data set is described as follows: In vitro antimalarial assay (PfLDH/diaphorase). The settings on record: Plasmodium falciparum, growth inhibition, 72 h, 0.0003 to 10 µM, read-out: EC50 Pf3D7. Format: cell-based. Here is the method:
This assay was conducted using human red blood cells (RBC) following the guidelines of the ethics committee of Nagasaki University (permission no. 19). Human RBC was obtained from the Japanese Red Cross Society. The P. falciparum 3D7 strain was cultured in 2% hematocrit type O human RBC in RPMI-1640 medium (Gibco) supplemented with 23.8 mM sodium bicarbonate (Wako), 50 mg/L hypoxanthine (Wako), 25 mg/L gentamycin (Sigma), and 0.5% (w/v) AlbuMAX®® II (Gibco) under a 5% O2, 5% CO2, and 90% N2 atmosphere at 37 °C. Parasites were synchronized with 5% (w/v) D-sorbitol (Wako).
Synchronized ring-stage parasites at 0.3% parasitemia and 2% hematocrit were cultured in a 384-well plate at 25 µL with test compounds at a final concentration in the range of 0.0003 to 10 µM with a fixed DMSO concentration of 0.4% (v/v). Parasite growth was monitored by the diaphorase-coupled P. falciparum lactate dehydrogenase (PfLDH) assay, as previously described. After 72 h, 70 µL of the assay solution (150 mM lithium L-lactate (Wako), 0.05 mg/mL 3-acetylpyridine adenine dinucleotide (Oriental Yeast Co., Ltd., Tokyo, Japan), 0.2 mg/mL nitro blue tetrazolium (Wako), 1 unit/mL diaphorase, and 100 mM Tris-HCl pH 8.0) were mixed with the parasite culture and incubated at room temperature for 40 min, and the generated nitro blue formazan was measured at 650 nm using a SpectraMax®® Paradigm®® Multi-Mode Microplate Reader. […] The EC50 was calculated using GraphPad Prism 8.0 software from the mean of quadruplets values.

A value given as a limit tells only on which side of the number the result lay.

T1 sequence (Q08210 158-569): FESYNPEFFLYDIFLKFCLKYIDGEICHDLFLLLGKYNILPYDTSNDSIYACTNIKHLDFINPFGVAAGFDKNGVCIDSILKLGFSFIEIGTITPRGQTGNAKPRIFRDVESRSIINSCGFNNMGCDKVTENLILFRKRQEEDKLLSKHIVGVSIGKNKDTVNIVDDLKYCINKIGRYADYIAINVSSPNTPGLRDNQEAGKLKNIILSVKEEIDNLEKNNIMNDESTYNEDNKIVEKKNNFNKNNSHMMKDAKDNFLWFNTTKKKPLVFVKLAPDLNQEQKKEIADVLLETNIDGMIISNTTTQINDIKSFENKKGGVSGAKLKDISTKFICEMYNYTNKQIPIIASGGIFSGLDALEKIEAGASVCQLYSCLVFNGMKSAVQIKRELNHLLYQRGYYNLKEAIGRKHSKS
T2 sequence (Q02127 whole entry): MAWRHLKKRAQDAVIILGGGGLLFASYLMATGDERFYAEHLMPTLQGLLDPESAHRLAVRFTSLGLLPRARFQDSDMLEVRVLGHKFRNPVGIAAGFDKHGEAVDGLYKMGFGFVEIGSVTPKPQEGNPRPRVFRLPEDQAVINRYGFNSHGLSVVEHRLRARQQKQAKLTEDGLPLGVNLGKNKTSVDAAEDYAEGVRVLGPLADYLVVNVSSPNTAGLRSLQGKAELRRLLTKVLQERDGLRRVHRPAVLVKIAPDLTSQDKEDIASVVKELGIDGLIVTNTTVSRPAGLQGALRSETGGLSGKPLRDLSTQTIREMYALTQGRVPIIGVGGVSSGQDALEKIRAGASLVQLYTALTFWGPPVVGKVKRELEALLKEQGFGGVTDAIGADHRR

In the case of `Oc1ccc(-c2ccc3c(c2)SN2CCCN=C32)cc1` [Compound 38], the half-inhibitory concentration (IC50) (commonly the concentration at which inhibition is half-maximal) in data set [1] is 1.81 ± 0.01 µM; in data set [2], more than 22.7 µM; in data set [3], more than 4.5 µM; in data set [5] it was more than 22.7 µM. The half-maximal effective concentration (EC50) at 48 h in data set [4], in data set [6] and in data set [7] was more than 10 µM in each case. The EC50 – broadly, the concentration needed to bring the measured effect to its halfway point – in data set [8] is more than 10 µM.

For `Oc1cccc(-c2ccc3c(c2)SN2CCCN=C32)c1` [Compound 41], the IC50 in data set [1] is 1.44 ± 0.05 µM; in data set [2], more than 22.7 µM; in data set [3], more than 4.5 µM; in data set [5], more than 22.7 µM. For the same compound, the 50% effective concentration (EC50) at 48 h in data set [4], in data set [6] and in data set [7] was more than 10 µM each time. The EC50 in data set [8] was more than 10 µM.
